Experimental data reported in US8574563B2 (Bristol-Myers Squibb Company, priority 2006, dated 2013).

System: HCV 1b-377-neo replicon cells
Experiment: HCV replicon assay, HCV 1b-377-neo replicon cells (1b FRET)
Assay type: cell-based, Hepatitis C virus genotype 1b
Conditions: Hepatitis C virus, HCV 1b-377-neo replicon cells; HCV 1b genotype; read-out: EC50 range against HCV 1b (Table 2, Range)
Outline: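 Compounds tested in HCV genotype 1b-377-neo replicon cells with a FRET read-out. Cells resistant to a reference NS5A inhibitor through a Y2065H NS5A mutation were run alongside wild-type cells.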

Row | Structure (SMILES) | EC50 [nM]
1 | COC(=O)N[C@@H](C)C(=O)N1CCC[C@H]1c1ncc(-c2ccc(-c3ccc(-c4cnc([C@@H]5CCCN5C(=O)[C@H](Cc5cn(Cc6ccccc6)cn5)NC(=O)OC)[nH]4)cc3)cc2)[nH]1 [cj-77, methyl ((1S)-2-((2S)-2-(5-(4′-(2-((2S)-1-((2S)-3-(1-benzyl-1H-imidazol-4-yl)-2-((methoxycarbonyl)amino)propanoyl)-2-pyrrolidinyl)-1H-imidazol-5-yl)-4-biphenylyl)-1H-imidazol-2-yl)-1-pyrrolidinyl)-1-methyl-2-oxoethyl)carbamate] | 0.001 to 0.999
2 | CCN(CC)[C@@H](C(=O)N1CCC[C@H]1c1ncc(-c2ccc(-c3ccc(-c4cnc([C@@H]5CCCN5C(=O)[C@@H](NC(=O)OC)C5CC5)[nH]4)c(F)c3)cc2)[nH]1)c1ccccc1 [Example D49, methyl ((1S)-1-cyclopropyl-2-((2S)-2-(5-(4′-(2-((2S)-1-((2R)-2-(diethylamino)-2-phenylacetyl)-2-pyrrolidinyl)-1H-imidazol-5-yl)-3-fluoro-4-biphenylyl)-1H-imidazol-2-yl)-1-pyrrolidinyl)-2-oxoethyl)carbamate] | 0.001 to 0.999
3 | CN(C)[C@@H](C(=O)N1CCC[C@H]1c1ncc(-c2ccc(-c3ccc(-c4cnc([C@@H]5CCCN5C(=O)[C@@H](c5ccccc5)N5CCCCC5)[nH]4)cc3)cc2)[nH]1)c1ccccc1 [Example 28-1, (1R)—N,N-dimethyl-2-oxo-1-phenyl-2-((2S)-2-(5-(4′-(2-((2S)-1-((2R)-2-phenyl-2-(1-piperidinyl)acetyl)-2-pyrrolidinyl)-1H-imidazol-5-yl)-4-biphenylyl)-1H-imidazol-2-yl)-1-pyrrolidinyl)ethanamine] | 0.001 to 0.999
4 | COC(=O)N[C@@H](C(=O)N1CCC[C@H]1c1ncc(-c2ccc(-c3ccc(-c4cnc([C@@H]5CCCN5C(=O)c5ncco5)[nH]4)cc3)cc2)[nH]1)c1ccccc1 [Example 71, methyl ((1R)-2-((2S)-2-(5-(4′-(2-((2S)-1-(1,3-oxazol-2-ylcarbonyl)-2-pyrrolidinyl)-1H-imidazol-5-yl)-4-biphenylyl)-1H-imidazol-2-yl)-1-pyrrolidinyl)-2-oxo-1-phenylethyl)carbamate] | 0.001 to 0.999
5 | COC(=O)N[C@@H](C(=O)N1CCC[C@H]1c1nc(-c2ccc(-c3ccc(-c4[nH]c([C@@H]5CCCN5C(=O)[C@H](NC(=O)OC)c5ccccc5)nc4C)cc3)cc2)c(C)[nH]1)c1ccccc1 [Example E5j, dimethyl (4,4′-biphenyldiylbis((4-methyl-1H-imidazole-5,2-diyl)(2S)-2,1-pyrrolidinediyl((1R)-2-oxo-1-phenyl-2,1-ethanediyl)))biscarbamate] | 0.001 to 0.999
6 | COC(=O)N[C@H](C(=O)N1[C@@H]2C[C@@H]2C[C@H]1c1ncc(-c2ccc(-c3ccc(-c4cnc([C@@H]5C[C@H]6C[C@H]6N5C(C)=O)[nH]4)cc3)cc2)[nH]1)C(C)C [Example M138, methyl ((1S)-1-(((1R,3S,5R)-3-(4-(4′-(2-((1R,3S,5R)-2-acetyl-2-azabicyclo[3.1.0]hex-3-yl)-1H-imidazol-4-yl)-4-biphenylyl)-1H-imidazol-2-yl)-2-azabicyclo[3.1.0]hex-2-yl)carbonyl)-2-methylpropyl)carbamate] | 0.001 to 0.999
7 | CC(C)[C@H](NC(=O)N(C)C)C(=O)N1CCC[C@H]1c1ncc(-c2ccc(-c3ccc(-c4cnc([C@@H]5CCCN5C(=O)[C@@H](NC(=O)N(C)C)C(C)C)[nH]4)cc3)cc2)[nH]1 [OL-1, 3-((1S)-1-(((2S)-2-(4-(4′-(2-((2S)-1-((2S)-2-((dimethylcarbamoyl)amino)-3-methylbutanoyl)-2-pyrrolidinyl)-1H-imidazol-4-yl)-4-biphenylyl)-1H-imidazol-2-yl)-1-pyrrolidinyl)carbonyl)-2-methylpropyl)-1,1-dimethylurea] | 0.001 to 0.999
8 | COC(=O)N[C@H](C(=O)N1CCC[C@H]1c1ncc(-c2ccc(-c3ccc(-c4cnc([C@@H]5CCCN5C(=O)[C@@H](N)C(C)C)[nH]4)cc3)cc2)[nH]1)C(C)C [Example M108, methyl ((1S)-2-methyl-1-(((2S)-2-(5-(4′-(2-((2S)-1-L-valyl-2-pyrrolidinyl)-1H-imidazol-5-yl)-4-biphenylyl)-1H-imidazol-2-yl)-1-pyrrolidinyl)carbonyl)propyl)carbamate] | 1 to 99
9 | COC(=O)N[C@@H](C(=O)N1CCC[C@H]1c1ncc(-c2ccc(-c3ccc(-c4cnc([C@@H]5CCCN5C(=O)C(c5ccccc5F)N(C)C)[nH]4)cc3)cc2)[nH]1)c1ccccc1 (stereo partly drawn) [Example 84-59, methyl ((1R)-2-((2S)-2-(5-(4′-(2-((2S)-1-((dimethylamino)(2-fluorophenyl)acetyl)-2-pyrrolidinyl)-1H-imidazol-5-yl)-4-biphenylyl)-1H-imidazol-2-yl)-1-pyrrolidinyl)-2-oxo-1-phenylethyl)carbamate] | 0.001 to 0.999
10 | COC(=O)N[C@@H](C)C(=O)N1CCC[C@H]1c1ncc(-c2ccc(-c3ccc(-c4cnc([C@@H]5CCCN5C(=O)[C@H](Cc5ccccn5)NC(=O)OC)[nH]4)cc3)cc2)[nH]1 [cj-66, methyl ((1S)-2-((2S)-2-(5-(4′-(2-((2S)-1-(N-(methoxycarbonyl)-L-alanyl)-2-pyrrolidinyl)-1H-imidazol-5-yl)-4-biphenylyl)-1H-imidazol-2-yl)-1-pyrrolidinyl)-2-oxo-1-(2-pyridinylmethyl)ethyl)carbamate] | 0.001 to 0.999
11 | CN(C)[C@@H](C(=O)N1CCC[C@H]1c1ncc(-c2ccc(-c3ccc(-c4cnc([C@@H]5CCCN5C(=O)c5snnc5-c5ccccc5)[nH]4)cc3)cc2)[nH]1)c1ccccc1 [Example 94-10, (1R)-N,N-dimethyl-2-oxo-1-phenyl-2-((2S)-2-(5-(4′-(2-((2S)-1-((4-phenyl-1,2,3-thiadiazol-5-yl)carbonyl)-2-pyrrolidinyl)-1H-imidazol-5-yl)-4-biphenylyl)-1H-imidazol-2-yl)-1-pyrrolidinyl)ethanamine] | 0.001 to 0.999
12 | CCC(=O)N1CCC[C@H]1c1ncc(-c2ccc(-c3ccc(-c4cnc([C@@H]5CCCN5C(=O)CC)[nH]4)cc3)cc2)[nH]1 [Example 10, 5,5′-(4,4′-biphenyldiyl)bis(2-((2S)-1-propionyl-2-pyrrolidinyl)-1H-imidazole)] | 1 to 99
13 | CN(C)[C@@H](C(=O)N1CCC[C@H]1c1ncc(-c2ccc(-c3ccc(-c4cnc([C@@H]5CCCN5C(=O)Cc5cn(C)cn5)[nH]4)cc3)cc2)[nH]1)c1ccccc1 [Example 88, (1R)-N,N-dimethyl-2-((2S)-2-(5-(4′-(2-((2S)-1-((1-methyl-1H-imidazol-4-yl)acetyl)-2-pyrrolidinyl)-1H-imidazol-5-yl)-4-biphenylyl)-1H-imidazol-2-yl)-1-pyrrolidinyl)-2-oxo-1-phenylethanamine] | 0.001 to 0.999
14 | COC(=O)N[C@H](C(=O)N1CCC[C@H]1c1ncc(-c2ccc(-c3ccc(-c4cnc([C@H]5CCCN5C(=O)[C@H](NC(=O)OC)C(C)C)[nH]4)cc3)cc2)[nH]1)C(C)C [Example M90, methyl ((1S)-1-(((2S)-2-(5-(4′-(2-((2R)-1-((2R)-2-((methoxycarbonyl)amino)-3-methylbutanoyl)-2-pyrrolidinyl)-1H-imidazol-5-yl)-4-biphenylyl)-1H-imidazol-2-yl)-1-pyrrolidinyl)carbonyl)-2-methylpropyl)carbamate] | 1000 to 10000
15 | CN(C)[C@@H](C(=O)N1CCC[C@H]1c1ncc(-c2ccc(-c3ncc(-c4cnc([C@@H]5CCCN5C(=O)[C@@H](c5ccccc5)N(C)C)[nH]4)cn3)cc2)[nH]1)c1ccccc1 [Example 152j-1, (1R)-2-((2S)-2-(5-(2-(4-(2-((2S)-1-((2R)-2-(dimethylamino)-2-phenylacetyl)-2-pyrrolidinyl)-1H-imidazol-5-yl)phenyl)-5-pyrimidinyl)-1H-imidazol-2-yl)-1-pyrrolidinyl)-N,N-dimethyl-2-oxo-1-phenylethanamine] | 1 to 99
16 | CN(C)C(C(=O)N1CCC[C@H]1c1ncc(-c2ccc(-c3ccc(-c4cnc([C@@H]5CCCN5C(=O)[C@@H](c5ccccc5)N(C)C)[nH]4)cc3)cc2)[nH]1)c1ccccn1 (stereo partly drawn) [Example 94-46, 2-((2S)-2-(5-(4′-(2-((2S)-1-((2R)-2-(dimethylamino)-2-phenylacetyl)-2-pyrrolidinyl)-1H-imidazol-5-yl)-4-biphenylyl)-1H-imidazol-2-yl)-1-pyrrolidinyl)-N,N-dimethyl-2-oxo-1-(2-pyridinyl)ethanamine] | 0.001 to 0.999
17 | CC(C)(C)OC(=O)N1CC(C(=O)N2CCC[C@H]2c2ncc(-c3ccc(-c4ccc(-c5cnc([C@@H]6CCCN6C(=O)[C@@H](c6ccccc6)N6CCCCC6)[nH]5)cc4)cc3)[nH]2)C1 [Example 107-12, tert-butyl 3-(((2S)-2-(5-(4′-(2-((2S)-1-((2R)-2-phenyl-2-(1-piperidinyl)acetyl)-2-pyrrolidinyl)-1H-imidazol-5-yl)-4-biphenylyl)-1H-imidazol-2-yl)-1-pyrrolidinyl)carbonyl)-1-azetidinecarboxylate] | 0.001 to 0.999
18 | COC(=O)N[C@@H](C(=O)N1CCC[C@H]1c1ncc(-c2ccc(-c3ccc(-c4[nH]c([C@@H]5CCCN5C(=O)[C@H](NC(=O)OC)c5ccccc5)nc4C(F)(F)F)cc3)cc2)[nH]1)c1ccccc1 [Example J37, methyl ((1R)-2-((2S)-2-(5-(4′-(2-((2S)-1-((2R)-2-((methoxycarbonyl)amino)-2-phenylacetyl)-2-pyrrolidinyl)-1H-imidazol-5-yl)-4-biphenylyl)-4-(trifluoromethyl)-1H-imidazol-2-yl)-1-pyrrolidinyl)-2-oxo-1-phenylethyl)carbamate] | 0.001 to 0.999
19 | COC(=O)N[C@@H](C)C(=O)N1CCC[C@H]1c1ncc(-c2ccc(-c3ccc(-c4[nH]c([C@@H]5CCCN5C(=O)[C@H](C)NC(=O)OC)nc4C(F)(F)F)cc3)cc2)[nH]1 [Example J38, methyl ((1S)-2-((2S)-2-(5-(4′-(2-((2S)-1-(N-(methoxycarbonyl)-L-alanyl)-2-pyrrolidinyl)-4-(trifluoromethyl)-1H-imidazol-5-yl)-4-biphenylyl)-1H-imidazol-2-yl)-1-pyrrolidinyl)-1-methyl-2-oxoethyl)carbamate] | 0.001 to 0.999
